Test results reported in US20100292262A1, “4 (PYRROLO[2,3-C]PYRIDINE-3-YL)PYRIMIDIN-2-AMINE DERIVATIVES” (Merck Patent Gesellschaft Mit Beschrankter Haftung, priority 2008, published 2010).

Assays:
A2780 (ovary) cells = assay: Inhibition of the proliferation/vitality of tumour cells (Alamar Blue test); type: cell-based; conditions: Homo sapiens, 96 h, 4 days cultivation with test substance in serum-containing medium, Alamar Blue readout
Description: In the present experiment description, the inhibition of tumour cell proliferation/tumour cell vitality by active ingredients is described. The cells are sown in a suitable cell density in microtitre plates (96-well format) and the test substances are added in the form of a concentration series. After four further days of cultivation in serum-containing medium, the tumour cell proliferation/tumour cell vitality can be determined by means of an Alamar Blue test system.
The cells are cultivated in medium. At intervals of several days, the cells are detached from the culture dishes with the aid of trypsin solution and sown in suitable dilution in fresh medium. The cells are cultivated at 37° Celsius and 10% CO2. […]
In each case, 20 μl of Alamar Blue reagent are added per well, and the microtitre plates are incubated, for example, for a further seven hours in a CO2 incubator (at 37° C. and 10% CO2). The plates are measured in a reader with a fluorescence filter at a wavelength of 540 nm. […]
The absorbance value of the medium control (no cells and test substances used) is subtracted from all other absorbance values. The controls (cells without test substance) are set equal to 100 percent, and all other absorbance values are set in relation thereto (for example in % of control):
IC50 values (50% inhibition) are determined with the aid of statistics programs, such as, for example, RS1.

Question: Which IC50 (A2780 (ovary) cells) does the source give for `c1ccc(Nc2nccc(-c3c[nH]c4cnccc34)n2)cc1` [Compound A3, phenyl-[4-(1H-pyrrolo[2,3-c]pyridin-3-yl)pyrimidin-2-yl]-amine] here?
Answer: 10 to 1000 nM

Question: Which IC50 (A2780 (ovary) cells) does the source give for `Nc1nccc(-c2c[nH]c3cnccc23)n1` [Compound A4, 4-(1H-pyrrolo[2,3-c]pyridin-3-yl)pyrimidin-2-ylamine] here?
Answer: 10 to 1000 nM

Question: Which melting point does the source give for `CCCCc1cc(-c2c[nH]c3cnccc23)nc(N)n1` [Compound A1, 4-butyl-6-(1H-pyrrolo[2,3-c]pyridin-3-yl)pyrimidin-2-ylamine] here?
Answer: 184 to 187 °C (dec.)
